The values below come from publication PMC11606603, “The membrane domains of mammalian adenylyl cyclases are lipid receptors” (eLife, 2024).

Test [1] relates to mAC1-C1/mAC2-C2. The experiment in a line: AC assay, Gsα-stimulated soluble catalytic dimer. It counts as biochemical. The protocol:
(§1) In a volume of 10 μl, AC activities were measured using 1 mM ATP, 2 mM MgCl2, 3 mM creatine phosphate, 60 μg/ml creatine kinase, and 50 mM MOPS pH 7.5. The cAMP assay kit from Cisbio (Codolet, France) was used for detection according to the supplier’s instructions. For each assay, a cAMP standard curve was established. EC50 and IC50 values were calculated by GraphPad Prism version 8.4.3 for Windows, GraphPad Software, San Diego, CA, USA, https://www.graphpad.com .

The subject of test [2] is mAC activity in brain cortical membranes. The experiment in a line: AC assay, Gsα-stimulated brain cortical membranes. It counts as biochemical, mouse. The protocol:
hAC sequences were from NCBI were: ADCY1: NM_021116.3; ADCY2: NM_020546.2; ADCY3: NM_004036.4; ADCY4: NM_001198568.2; ADCY5: NM_183357.2; ADCY6: NM_015270.4; ADCY7: NM_001114.4; ADCY8: NM_001115.2; ADCY9: NM_001116.3. Human mAC genes were from GenScript and fitted with a C-terminal FLAG-tag. […] The gene was synthesized by GenScript. HEK293 cells were maintained in Dulbeccos Modified Eagle Medium (DMEM) with 10% fetal bovine serum at 37°C and 5% CO2. Transfection with AC plasmids was with PolyJet (SignaGen, Frederick, MD, USA). Permanent cell lines were generated by selection for 7 days with 600 µg/ml G418 and maintained with 300 µg/ml For membrane preparation, cells were tyrpsinized, collected by centrifugation (3000 × g, 5 min) and lysed and homogenized in 20 mM HEPES, pH 7.5, 1 mM Ethylenediaminetetraacetic acid (EDTA), 2 mM MgCl2, 1 mM Dithiothreitol (DTT), one tablet of cOmplete, EDTA-free (per 50 ml) and 250 mM sucrose by 20 strokes in a potter homogenizer on ice. Debris was removed (5 min at 1000 × g, 0°C), membranes were collected at 100,000 × g, 60 min at 0°C, suspended and stored at −80°C in 20 mM MOPS, pH 7.5, 0.5 mM EDTA, 2 mM MgCl2. […] Three cerebral cortices were dissected and homogenized in 4.5 ml cold 48 mM Tris–HCl, pH 7.4, 12 mM MgC1_2, and 0.1 mM Ethylene glycol-bis(β-aminoethyl ether)-N,N,N′,N′-tetraacetic acid (EGTA) with a Polytron hand disperser (Kinematica AG, Switzerland). […] The pellet was washed once with 5 ml 1 mM KHCO3. The final suspension in 2 ml 1 mM KHCO3 was stored in aliquots at −80°C.
as §1

The target in test [3] is T1, HEK-mAC1 (Homo sapiens, UniProt Q08828).
T1 construct: Human mAC genes were from GenScript and fitted with a C-terminal FLAG-tag; FLAG (C); expressed in transfected cells; host or cells: HEK293, permanently transfected
T1 sequence (Q08828 whole entry): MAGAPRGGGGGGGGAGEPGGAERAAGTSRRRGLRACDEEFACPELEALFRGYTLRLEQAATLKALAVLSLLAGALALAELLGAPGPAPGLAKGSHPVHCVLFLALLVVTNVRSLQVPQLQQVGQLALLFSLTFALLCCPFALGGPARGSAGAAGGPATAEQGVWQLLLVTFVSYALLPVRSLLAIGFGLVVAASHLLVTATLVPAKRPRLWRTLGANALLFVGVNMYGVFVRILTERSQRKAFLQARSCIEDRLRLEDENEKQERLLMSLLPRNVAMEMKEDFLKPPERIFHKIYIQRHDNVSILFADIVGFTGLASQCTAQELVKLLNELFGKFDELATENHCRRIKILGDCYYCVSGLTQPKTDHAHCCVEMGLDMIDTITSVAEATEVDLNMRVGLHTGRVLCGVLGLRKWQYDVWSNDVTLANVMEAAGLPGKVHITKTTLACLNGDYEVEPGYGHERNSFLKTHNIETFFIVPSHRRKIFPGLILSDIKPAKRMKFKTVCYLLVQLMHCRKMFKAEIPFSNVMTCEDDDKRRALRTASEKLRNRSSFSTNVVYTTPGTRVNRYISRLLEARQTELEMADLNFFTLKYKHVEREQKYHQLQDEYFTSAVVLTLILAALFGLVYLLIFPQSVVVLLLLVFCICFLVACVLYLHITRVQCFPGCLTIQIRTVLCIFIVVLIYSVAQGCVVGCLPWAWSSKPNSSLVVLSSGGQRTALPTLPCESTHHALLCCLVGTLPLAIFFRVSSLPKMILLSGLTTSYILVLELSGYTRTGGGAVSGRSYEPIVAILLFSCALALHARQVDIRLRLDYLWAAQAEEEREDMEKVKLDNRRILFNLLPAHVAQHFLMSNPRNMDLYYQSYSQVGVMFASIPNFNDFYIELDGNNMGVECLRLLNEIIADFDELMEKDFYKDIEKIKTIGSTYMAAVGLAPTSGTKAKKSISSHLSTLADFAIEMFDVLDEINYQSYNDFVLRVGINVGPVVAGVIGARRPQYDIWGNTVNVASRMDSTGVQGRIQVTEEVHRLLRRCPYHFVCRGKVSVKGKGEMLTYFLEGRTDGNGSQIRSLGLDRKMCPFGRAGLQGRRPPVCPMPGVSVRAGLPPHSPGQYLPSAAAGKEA
Description: cAMP accumulation assay, isoproterenol-stimulated HEK-mAC1 cells. In kind it is cell-based. The conditions noted are these: for cAMP level (%); 100%= 10µM Isoproterenol stimulation: single experiments.

The target of test [4] is T2, HEK-mAC4 (Homo sapiens, UniProt Q8NFM4).
T2 construct: Human mAC genes were from GenScript and fitted with a C-terminal FLAG-tag; FLAG (C); expressed in transfected cells; host or cells: HEK293, permanently transfected
T2 sequence (Q8NFM4 1-1077): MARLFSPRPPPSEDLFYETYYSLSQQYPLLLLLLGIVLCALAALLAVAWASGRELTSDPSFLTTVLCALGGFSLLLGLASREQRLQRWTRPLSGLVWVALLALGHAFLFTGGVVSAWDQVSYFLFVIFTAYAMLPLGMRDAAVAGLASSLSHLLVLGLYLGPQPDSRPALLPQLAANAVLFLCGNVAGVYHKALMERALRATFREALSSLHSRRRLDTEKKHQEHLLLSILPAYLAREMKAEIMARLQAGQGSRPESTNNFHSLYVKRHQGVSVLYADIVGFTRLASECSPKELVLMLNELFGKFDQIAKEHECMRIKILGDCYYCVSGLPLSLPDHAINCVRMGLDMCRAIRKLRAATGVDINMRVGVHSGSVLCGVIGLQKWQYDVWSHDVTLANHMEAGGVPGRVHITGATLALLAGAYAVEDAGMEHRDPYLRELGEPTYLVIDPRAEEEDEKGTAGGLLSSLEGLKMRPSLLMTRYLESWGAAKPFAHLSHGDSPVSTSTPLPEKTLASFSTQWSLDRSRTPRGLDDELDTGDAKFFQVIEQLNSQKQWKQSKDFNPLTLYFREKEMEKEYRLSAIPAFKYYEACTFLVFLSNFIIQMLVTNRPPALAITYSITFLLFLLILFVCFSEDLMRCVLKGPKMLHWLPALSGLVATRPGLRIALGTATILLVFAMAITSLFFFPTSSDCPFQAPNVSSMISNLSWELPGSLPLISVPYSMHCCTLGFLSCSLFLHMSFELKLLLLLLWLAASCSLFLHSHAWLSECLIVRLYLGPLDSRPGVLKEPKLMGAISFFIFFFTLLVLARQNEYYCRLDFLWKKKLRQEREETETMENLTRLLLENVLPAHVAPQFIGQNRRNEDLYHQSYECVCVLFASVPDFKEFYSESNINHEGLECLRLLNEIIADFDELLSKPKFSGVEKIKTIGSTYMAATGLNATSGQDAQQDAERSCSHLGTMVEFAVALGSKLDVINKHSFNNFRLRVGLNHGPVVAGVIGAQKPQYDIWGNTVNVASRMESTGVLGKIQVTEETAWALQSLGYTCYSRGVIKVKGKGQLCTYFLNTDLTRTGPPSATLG
The experiment in a line: cAMP accumulation assay, isoproterenol-stimulated HEK-mAC4 cells. It counts as cell-based. The conditions noted are these: for cAMP level (%); 100%= 10µM Isoproterenol stimulation: single experiments.

Each structure is given as a SMILES string. Where “and” joins values, the source holds several entries; their conditions need not be identical. Identical values can stand only once.

Take `CCCCCCCC/C=C\CCCCCCCC(=O)O` [Oleic acid, Oleic ((9Z)-octadecenoic) acid]: the “AC activity (%); stimulated by 300nM Gsα, mAC1-C1/mAC2-C2” value is 100% in test [1] (Oleic acid 0.3 µM); 93% and 84% and 72% in test [1] (Oleic acid 1 µM); 77% and 90% and 82% in test [1] (Oleic acid 3 µM); 78% and 77% and 84% in test [1] (Oleic acid 6 µM); 68% and 70% and 67% in test [1] (Oleic acid 10 µM); 74% and 77% and 65% in test [1] (Oleic acid 20 µM). Besides, the “enhancement of Gsα-stimulated cAMP formation in cortical membranes” value in test [2] (20 µM oleic acid) worked out at 1.5 fold. The “mAC activity [%] (100% = 300nM Gsα stimulation), mouse brain cortex” value in test [2] (Oleic acid 1 µM) is 78% and 93% and 114%; in test [2] (Oleic acid 3 µM), 154%; in test [2] (Oleic acid 6 µM) it was 153% and 144%; in test [2] (Oleic acid 8 µM) it was 173% and 146% and 174%; in test [2] (Oleic acid 10 µM), 142% and 181%; in test [2] (Oleic acid 20 µM) it was 187% and 161% and 140%. The EC50 in test [2] (enhancement of 300 nM Gsα-stimulated cAMP formation) turned out to be 5 µM.
The compound `CCCCC/C=C\C/C=C\C/C=C\C/C=C\CCCC(=O)O` [Arachidonic acid, Arachidonic ((5Z,8Z,11Z,14Z)-eicosatetraenoic) acid] returned an IC50 in test [3] (10 µM isoproterenol, 0.5 mM IBMX) of 0.25 nM. Besides, the “cAMP level (%); 100%= 10µM Isoproterenol stimulation” value (“cAMP level (%)” below) is 113% and 69% in test [3] (HEK-mAC1, 1e-5 µM); 98% and 73% in test [3] (HEK-mAC1, 0.0001 µM); 93% and 69% in test [3] (HEK-mAC1, 0.001 µM); 61% in test [3] (HEK-mAC1, 0.003 µM); 59% in test [3] (HEK-mAC1, 0.006 µM); 62% and 55% and 52% and 91% and 64% in test [3] (HEK-mAC1, 0.01 µM). The “cAMP level (%)” value was 77% and 55% and 49% and 97% and 63% in test [3] (HEK-mAC1, 0.1 µM); 47% in test [3] (HEK-mAC1, 0.6 µM); 72% and 67% and 51% and 53% and 65% in test [3] (HEK-mAC1, 60 µM); 76% and 47% and 57% and 42% and 44% and 60% and 81% in test [3] (HEK-mAC1, 100 µM); 136% in test [4] (HEK-mAC4, 1e-5 µM); 111% in test [4] (HEK-mAC4, 0.0001 µM). For the same compound, the “cAMP level (%)” value in test [4] (HEK-mAC4, 0.001 µM) is 114%; in test [4] (HEK-mAC4, 0.01 µM), 81% and 101% and 120% and 122%; in test [4] (HEK-mAC4, 0.03 µM), 124%; in test [4] (HEK-mAC4, 0.06 µM), 102%; in test [4] (HEK-mAC4, 0.1 µM), 84% and 94% and 116% and 103%; in test [4] (HEK-mAC4, 0.6 µM), 108%. Moreover, the “cAMP level (%)” value in test [4] (HEK-mAC4, 1 µM) was 106% and 107% and 121% and 127% and 99% and 109% and 161% and 110%; in test [4] (HEK-mAC4, 3 µM), 93% and 101% and 129% and 97% and 124% and 139%; in test [4] (HEK-mAC4, 10 µM), 112% and 82% and 111% and 109% and 125% and 147%; in test [4] (HEK-mAC4, 30 µM), 103% and 112% and 97% and 105% and 131%; in test [4] (HEK-mAC4, 60 µM) it was 95% and 112% and 121% and 114% and 128%; in test [4] (HEK-mAC4, 100 µM) it was 99% and 78% and 112% and 85% and 100% and 146% and 145%. The “Effect on isoproterenol-stimulated cAMP formation in HEK-mAC4” value in test [4] (10 µM isoproterenol, in words) was “not attenuated”.
